Experimental data as given in PubChem BioAssay (NCI).
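96-well plates; 48 h exposure; 5 concentrations. Endpoints by linear interpolation between flanking doses. Not reached: highest tested concentration assigned. TGI: total growth inhibition.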

Experiments:
Test in all cases: DTP human tumour cell line panel, 48 h
[1] = test system: UACC-257 melanoma
[2] = test system: SK-MEL-28 melanoma
[3] = test system: HL-60(TB) leukemia
[4] = test system: KM20L2 colon
[5] = test system: OVCAR-5 ovarian
[6] = test system: A498 renal
[7] = test system: OVCAR-8 ovarian
[8] = test system: SNB-78 CNS
[9] = test system: U251 CNS
[10] = test system: SF-295 CNS
[11] = test system: HOP-92 NSCLC
[12] = test system: HCC-2998 colon
[13] = test system: LXFL 529 NSCLC
[14] = test system: HCT-15 colon
[15] = test system: SR leukemia
[16] = test system: SNB-19 CNS
[17] = test system: HOP-62 NSCLC
[18] = test system: 786-0 renal
[19] = test system: TK-10 renal
[20] = test system: SK-MEL-5 melanoma
[21] = test system: NCI-H522 lung
[22] = test system: SK-MEL-2 melanoma
[23] = test system: SW-620 colon
[24] = test system: A549 NSCLC
[25] = test system: ACHN renal
[26] = test system: K-562 leukemia
[27] = test system: MALME-3M melanoma
[28] = test system: MOLT-4 leukemia
[29] = test system: NCI-H460 lung
[30] = test system: DMS 114 small cell lung
[31] = test system: UACC-62 melanoma
[32] = test system: M19-MEL melanoma
[33] = test system: COLO 205 colon
[34] = test system: KM12 colon
[35] = test system: NCI-H23 lung
[36] = test system: EKVX NSCLC
[37] = test system: DLD-1 colon
[38] = test system: IGROV1 ovarian
[39] = test system: HOP-18 NSCLC
[40] = test system: SF-268 CNS
[41] = test system: M14 melanoma
[42] = test system: UO-31 renal
[43] = test system: HT29 colon
[44] = test system: RXF 393 renal
[45] = test system: CCRF-CEM leukemia
[46] = test system: SF-539 CNS
[47] = test system: HCT-116 colon
[48] = test system: SN12C renal
[49] = test system: RXF-631 renal
[50] = test system: LOX IMVI melanoma
[51] = test system: NCI-H226 lung
[52] = test system: OVCAR-3 ovarian
[53] = test system: OVCAR-4 ovarian
[54] = test system: RPMI-8226 leukemia
[55] = test system: SNB-75 CNS
[56] = test system: CAKI-1 renal

**Q.** How did the TGI [1] turn out when `COc1ccc(NC(=O)C2C(=O)N(c3ccc(OC)cc3)C(=O)/C2=N\N)cc1` (stereo not drawn) was run?
**A.** > 100 µM

**Q.** What about the TGI [2] of the same compound?
**A.** > 100 µM

**Q.** And the TGI [3]?
**A.** > 100 µM

**Q.** And the TGI [4]?
**A.** > 100 µM

**Q.** And the TGI [5]?
**A.** > 100 µM

**Q.** And the TGI [6]?
**A.** > 100 µM

**Q.** What about the TGI [7] of the same compound?
**A.** > 100 µM

**Q.** And the TGI [8]?
**A.** > 100 µM

**Q.** And the TGI [9]?
**A.** > 100 µM

**Q.** And the TGI [10]?
**A.** > 100 µM

**Q.** What about the TGI [11] of the same compound?
**A.** > 100 µM

**Q.** And the TGI [12]?
**A.** > 100 µM

**Q.** And the TGI [13]?
**A.** > 100 µM

**Q.** What about the TGI [14] of the same compound?
**A.** > 100 µM

**Q.** What about the TGI [15] of the same compound?
**A.** > 100 µM

**Q.** And the TGI [16]?
**A.** > 100 µM

**Q.** And the TGI [17]?
**A.** > 100 µM

**Q.** What about the TGI [18] of the same compound?
**A.** > 100 µM

**Q.** And the TGI [19]?
**A.** > 100 µM

**Q.** What about the TGI [20] of the same compound?
**A.** > 100 µM

**Q.** What about the TGI [21] of the same compound?
**A.** > 100 µM

**Q.** What about the TGI [22] of the same compound?
**A.** > 100 µM

**Q.** And the TGI [23]?
**A.** > 100 µM

**Q.** What about the TGI [24] of the same compound?
**A.** > 100 µM

**Q.** And the TGI [25]?
**A.** > 100 µM

**Q.** And the TGI [26]?
**A.** > 100 µM

**Q.** And the TGI [27]?
**A.** > 100 µM

**Q.** What about the TGI [28] of the same compound?
**A.** > 100 µM

**Q.** And the TGI [29]?
**A.** > 100 µM

**Q.** What about the TGI [30] of the same compound?
**A.** > 100 µM

**Q.** What about the TGI [31] of the same compound?
**A.** > 100 µM

**Q.** And the TGI [32]?
**A.** > 100 µM

**Q.** And the TGI [33]?
**A.** > 100 µM

**Q.** And the TGI [34]?
**A.** > 100 µM

**Q.** And the TGI [35]?
**A.** > 100 µM

**Q.** And the TGI [36]?
**A.** > 100 µM

**Q.** And the TGI [37]?
**A.** > 100 µM

**Q.** What about the TGI [38] of the same compound?
**A.** > 100 µM

**Q.** What about the TGI [39] of the same compound?
**A.** > 100 µM

**Q.** What about the TGI [40] of the same compound?
**A.** > 100 µM

**Q.** What about the TGI [41] of the same compound?
**A.** > 100 µM

**Q.** What about the TGI [42] of the same compound?
**A.** > 100 µM

**Q.** And the TGI [43]?
**A.** > 100 µM

**Q.** What about the TGI [44] of the same compound?
**A.** > 100 µM

**Q.** And the TGI [45]?
**A.** > 100 µM

**Q.** And the TGI [46]?
**A.** > 100 µM

**Q.** What about the TGI [47] of the same compound?
**A.** > 100 µM

**Q.** And the TGI [48]?
**A.** > 100 µM

**Q.** What about the TGI [49] of the same compound?
**A.** > 100 µM

**Q.** Which results are given for `CCOc1cc2c[n+](C)c3c4cc(OC)c(OC)cc4ccc3c2cc1OC`?
**A.** TGI [1]: > 100 µM; TGI [2]: > 100 µM; TGI [3]: > 100 µM; TGI [4]: > 100 µM; TGI [5]: > 100 µM; TGI [7]: 32.2 µM; TGI [8]: > 100 µM; TGI [50]: > 100 µM; TGI [51]: > 100 µM; TGI [52]: > 100 µM; TGI [9]: > 100 µM; TGI [10]: > 100 µM; TGI [11]: > 100 µM; TGI [12]: > 100 µM; TGI [13]: > 100 µM; TGI [14]: > 100 µM; TGI [15]: > 100 µM; TGI [16]: > 100 µM; TGI [17]: > 100 µM; TGI [18]: 35.1 µM; TGI [19]: > 100 µM; TGI [20]: > 100 µM; TGI [21]: > 100 µM; TGI [22]: > 100 µM; TGI [23]: > 100 µM; TGI [24]: > 100 µM; TGI [25]: > 100 µM; TGI [53]: > 100 µM; TGI [26]: > 100 µM; TGI [27]: > 100 µM; TGI [28]: > 100 µM; TGI [54]: > 100 µM; TGI [29]: > 100 µM; TGI [30]: > 100 µM; TGI [32]: > 100 µM; TGI [33]: > 100 µM; TGI [34]: > 100 µM; TGI [35]: > 100 µM; TGI [36]: > 100 µM; TGI [37]: > 100 µM; TGI [38]: > 100 µM; TGI [39]: > 100 µM; TGI [55]: > 100 µM; TGI [40]: > 100 µM; TGI [41]: > 100 µM; TGI [42]: > 100 µM; TGI [43]: > 100 µM; TGI [44]: > 100 µM; TGI [56]: > 100 µM; TGI [45]: > 100 µM; TGI [46]: > 100 µM; TGI [47]: > 100 µM; TGI [48]: > 100 µM; TGI [49]: 40.1 µM
